Activity calls are given as the source filed them. No cut-off for these calls is given here.
How the values were obtained:
[1] = biological target: Heat shock protein HSP90 (Homo sapiens) (UniProt P07900+P08238); test: Competitive inhibition of recombinant HSP90 (unknown origin) at 100 uM measured after 3 hrs using FITC-labeled geldanamycin by fluorescence polarization assay
[2] = Anticancer activity against human Caki1 cells measured after 72 hrs by SRB assay; format: functional, cell-based; details: CAKI-1, 72 h
[3] = Anticancer activity against human HCT116 cells measured after 72 hrs by SRB assay; format: functional, cell-based; details: HCT-116, 72 h
MDA-MB-231 = test: Anticancer activity against human MDA-MB-231 cells measured after 72 hrs by SRB assay; format: functional, cell-based; details: MDA-MB-231, 72 h
[4] = Anticancer activity against human SNU638 cells measured after 72 hrs by SRB assay; format: functional, cell-based; details: SNU-638, 72 h
A549 = test: Anticancer activity against human A549 cells measured after 72 hrs by SRB assay; format: functional, cell-based; details: A549, 72 h

Structure (SMILES)	inhibition [1]	also measured
CNc1nc2c(N)ncnc2n1[C@@H]1SC[C@@H](O)[C@H]1O	inactive	
Nc1ncnc2c1nc(-c1ccco1)n2[C@@H]1S[C@H](CO)[C@@H](O)[C@H]1O	inactive	
Nc1ncnc2c1nc(NCc1ccc3c(c1)OCO3)n2[C@@H]1SC[C@@H](O)[C@H]1O	inactive	IC50 [2]: > 100000 nM; IC50 [3]: > 100000 nM; IC50 (MDA-MB-231): > 100000 nM; IC50 [4]: > 100000 nM; IC50 (A549): > 100000 nM
Nc1ncnc2c1nc(-c1ccco1)n2[C@@H]1SC[C@@H](O)[C@H]1O	inactive	
Nc1ncnc2c1nc(-c1cccs1)n2[C@@H]1SC[C@@H](O)[C@H]1O	inactive	
[N-]=[N+]=Nc1nc2c(N)ncnc2n1[C@@H]1SC[C@@H](O)[C@H]1O	inactive	
O[C@@H]1[C@H](O)CS[C@H]1n1c(-c2cccs2)nc2c(Cl)ncnc21	inactive	
Nc1ncnc2c1nc(-c1cccs1)n2[C@@H]1S[C@H](CO)[C@@H](O)[C@H]1O	inactive	
Nc1ncnc2c1nc(NCc1ccccc1)n2[C@@H]1SC[C@@H](O)[C@H]1O	inactive	
Nc1ncnc2c1nc(N1CCCCC1)n2[C@@H]1SC[C@@H](O)[C@H]1O	inactive	
Nc1ncnc2c1nc(N1CCCCC1)n2[C@@H]1S[C@H](CO)[C@@H](O)[C@H]1O	inactive	
CCCNc1nc2c(N)ncnc2n1[C@@H]1SC[C@@H](O)[C@H]1O	inactive	
Nc1ncnc2c1nc(-c1ccccc1)n2[C@@H]1S[C@H](CO)[C@@H](O)[C@H]1O	inactive	
COC1=C2C[C@@H](C)C[C@H](OC)[C@H](O)[C@@H](C)/C=C(\C)[C@H](OC(N)=O)[C@@H](OC)/C=C\C=C(/C)C(=O)NC(=CC1=O)C2=O [GELDANAMYCIN]		IC50 [2]: 56 nM; IC50 [3]: 150 nM; IC50 (MDA-MB-231): 110 nM; IC50 [4]: 30 nM; IC50 (A549): 109 nM
[N-]=[N+]=Nc1nc2c(N)ncnc2n1[C@@H]1S[C@H](CO)[C@@H](O)[C@H]1O	inactive	
CCCNc1nc2c(N)ncnc2n1[C@@H]1S[C@H](CO)[C@@H](O)[C@H]1O	inactive	
O[C@@H]1[C@H](O)CS[C@H]1n1c(-c2ccco2)nc2c(Cl)ncnc21	inactive	
CNc1nc2c(N)ncnc2n1[C@@H]1S[C@H](CO)[C@@H](O)[C@H]1O	inactive	
CNc1ncnc2c1nc(-c1cccs1)n2[C@@H]1SC[C@@H](O)[C@H]1O	inactive	
[N-]=[N+]=Nc1nc2c(Cl)ncnc2n1[C@@H]1SC[C@@H](O)[C@H]1O	inactive	
Nc1ncnc2c1nc(I)n2[C@@H]1SC[C@@H](O)[C@H]1O	11%	
CNc1ncnc2c1nc(-c1ccco1)n2[C@@H]1SC[C@@H](O)[C@H]1O	inactive	

Source: ChEMBL document CHEMBL3813697, “Design, synthesis, and anticancer activity of C8-substituted-4'-thionucleosides as potential HSP90 inhibitors” (Bioorg Med Chem, 2016)
